Test results as given in PMC9503898, “Synthesis and Evaluation of Two Long-Acting SSTR2 Antagonists for Radionuclide Therapy of Neuroendocrine Tumors” (Pharmaceuticals, 2022).
Positions of bridges follow the written chain, without caps; N, C: chain ends. Non-standard residues stand in square brackets, D forms with d. Residues, ends and D or L forms follow the SMILES beside them. *: point of attachment. DOTA = O=C(O)CN1CCN(CC(=O)O)CCN(CC(=O)*)CCN(CC(=O)O)CC1; dPhe(4-NHCONH2) = NC(=O)Nc1ccc(C[C@@H](N)C(=O)O)cc1; Butanoyl(4-(4-I-phenyl)) = O=C(CCCc1ccc(I)cc1)*; Dihydroorotyl(S) = O=C1C[C@@H](C(=O)*)NC(=O)N1; Phe(4-Cl) = N[C@@H](Cc1ccc(Cl)cc1)C(=O)O; Phe(4-NH2) = Nc1ccc(C[C@H](N)C(=O)O)cc1

Legend:
[1] = Stability in PBS; type: physicochemical; conditions: % intact radiolabeled ligand, ~3 MBq in PBS (300 μL), 37 °C, radio-HPLC, n = 1
Description: (§1) The ^177Lu-labeled compounds (~3 MBq) were incubated in PBS (300 μL) at 37 °C. The stability of the radiolabeled peptides was verified by radio-HPLC at 1, 4, and 24 h. The stability in serum was determined by incubating the radiolabeled compounds (~3 MBq) into 150 μL of mouse serum (Merck; Haarlerbergweg, The Netherlands) at 37 °C. At 1, 4, and 24 h post-incubation, the proteins were precipitated by adding an aliquot of 35 μL of the mixture to an equal volume of ACN. The vial was vortexed and centrifuged for 20 min. stability was monitored by radio-HPLC (Figures S4 and S5).

[2] = Stability in mouse serum; type: in vitro ADME; conditions: % intact radiolabeled ligand, ~3 MBq in 150 μL mouse serum, 37 °C, ACN protein precipitation, radio-HPLC, n = 1
Description: as §1

[3] = Determination of lipophilicity (LogD7.4, shake-flask); type: physicochemical; conditions: n-octanol/PBS (1:1), pH 7.4, PBS/n-octanol 1:1 (1 mL), ~1.5 MBq, gamma counter, n = 3 (triplicate), mean ± SEM, read-out: Log D7.4
Description: The distribution coefficient (LogD7.4) of the ^177Lu-labeled peptides was determined by the shake-flask method. For each radioligand, the experiment was performed in triplicate. The radiolabeled compound (~1.5 MBq) was added to a solution of phosphate buffered saline (PBS)/n-octanol (1 mL, v:v = 1:1) in eppendorf vials. The vials were vortexed vigorously and centrifuged at 10,000 rpm for 3 min. The n-octanol phase was separated from the aqueous phase, poured into new vials, and centrifuged for 15 min. Samples from each phase (10 μL) were measured using a gamma counter. The LogD7.4 value was calculated using the following equation: […].

[4] = Ex vivo biodistribution; conditions: mouse, iv, 0.5 nmol, total radioactivity
[5] = In vivo SPECT/CT imaging; conditions: mouse, H69 xenograft tumor, iv, 20 MBq/0.5 nmol per animal, total radioactivity
[6] = system: mice bearing SSTR2-positive H69 xenografts; experiment: In vivo SPECT/CT imaging; conditions: H69 xenograft mice, i.v. 20 MBq/0.5 nmol, n = 4
[7] = molecular target: human albumin (Homo sapiens, UniProt P02768); experiment: Albumin binding properties (ultrafiltration); conditions: ~1 MBq in human albumin/PBS (500 µL, v:v = 1:4), 1 h, 37 °C; Centrifree ultrafiltration 30 KDa; gamma counter; n = 3, mean ± SEM
Chain of human albumin (P02768 25-609): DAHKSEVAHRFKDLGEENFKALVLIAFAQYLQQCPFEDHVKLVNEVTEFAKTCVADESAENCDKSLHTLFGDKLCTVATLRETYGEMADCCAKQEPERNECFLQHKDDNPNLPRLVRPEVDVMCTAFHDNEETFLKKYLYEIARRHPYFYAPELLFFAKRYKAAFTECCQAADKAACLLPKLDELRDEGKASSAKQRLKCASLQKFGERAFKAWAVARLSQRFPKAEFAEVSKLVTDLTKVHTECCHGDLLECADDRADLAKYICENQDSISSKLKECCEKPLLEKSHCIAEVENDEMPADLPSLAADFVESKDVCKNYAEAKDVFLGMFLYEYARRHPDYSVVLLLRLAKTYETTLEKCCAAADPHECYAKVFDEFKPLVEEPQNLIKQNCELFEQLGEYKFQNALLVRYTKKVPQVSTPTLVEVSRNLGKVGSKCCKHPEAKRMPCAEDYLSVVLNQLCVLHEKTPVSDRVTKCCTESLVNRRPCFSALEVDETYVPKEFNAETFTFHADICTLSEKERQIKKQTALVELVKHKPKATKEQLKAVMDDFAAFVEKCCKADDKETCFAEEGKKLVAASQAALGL

- Stability in PBS (%) 1 h ([1]; 1 h): 96.5%
- Stability in PBS (%) 4 h ([1]; 4 h): 96.5%
- Stability in PBS (%) 24 h ([1]; 24 h): 97.2%
- remaining at 1 h ([2]; 1 h): 97.3%
- remaining at 4 h ([2]; 4 h): 98.4%
- remaining at 24 h ([2]; 24 h): 98.5%
- logD [3]: -1.6 ± 0.03
- tissue uptake at 4 h ([4]; blood): 21.3 ± 1.1 %ID/g
- tissue uptake at 24 h ([4]; blood): 18.1 ± 4.2 %ID/g
- tissue uptake at 48 h ([4]; blood): 12.9 ± 1.2 %ID/g
- tissue uptake at 72 h ([4]; blood): 8.6 ± 0.5 %ID/g
- tissue uptake at 4 h ([4]; bone marrow): 1.2 ± 2 %ID/g
- tissue uptake at 4 h ([4]; bone): 1.3 ± 1.8 %ID/g
- tissue uptake at 24 h ([4]; bone): 1.5 ± 1.1 %ID/g
- tissue uptake at 48 h ([4]; bone): 0.9 ± 0.4 %ID/g
- tissue uptake at 72 h ([4]; bone): 1.2 ± 1 %ID/g
- tissue uptake at 4 h ([4]; heart): 7.6 ± 1.2 %ID/g
- tissue uptake at 24 h ([4]; heart): 5.1 ± 0.7 %ID/g
- tissue uptake at 48 h ([4]; heart): 4.8 ± 0.5 %ID/g
- tissue uptake at 72 h ([4]; heart): 3.9 ± 0.7 %ID/g
- tissue uptake at 4 h ([4]; intestine): 2.5 ± 0.2 %ID/g
- tissue uptake at 24 h ([4]; intestine): 1.7 ± 0.1 %ID/g
- tissue uptake at 48 h ([4]; intestine): 1.4 ± 0.1 %ID/g
- tissue uptake at 72 h ([4]; intestine): 1.1 %ID/g
- tissue uptake at 4 h ([4]; kidney): 9.6 ± 1.2 %ID/g
- tissue uptake at 24 h ([4]; kidney): 18.4 ± 1.9 %ID/g
- tissue uptake at 48 h ([4]; kidney): 22.6 ± 1.9 %ID/g
- tissue uptake at 72 h ([4]; kidney): 21.6 ± 1.4 %ID/g
- tissue uptake at 4 h ([4]; liver): 4.6 ± 1.2 %ID/g
- tissue uptake at 24 h ([4]; liver): 3.7 ± 0.2 %ID/g
- tissue uptake at 48 h ([4]; liver): 3.6 ± 0.2 %ID/g
- tissue uptake at 72 h ([4]; liver): 2.9 ± 0.3 %ID/g
- tissue uptake at 4 h ([4]; lung): 9.9 ± 2.9 %ID/g
- tissue uptake at 24 h ([4]; lung): 7.5 ± 0.6 %ID/g
- tissue uptake at 48 h ([4]; lung): 7.2 ± 0.3 %ID/g
- tissue uptake at 72 h ([4]; lung): 6 ± 0.5 %ID/g
- tissue uptake at 4 h ([4]; muscle): 0.8 ± 1.1 %ID/g
- tissue uptake at 24 h ([4]; muscle): 1.1 ± 0.1 %ID/g
- tissue uptake at 48 h ([4]; muscle): 1.2 ± 0.5 %ID/g
- tissue uptake at 72 h ([4]; muscle): 0.8 ± 0.1 %ID/g
- tissue uptake at 4 h ([4]; pancreas): 7.2 ± 0.3 %ID/g
- tissue uptake at 24 h ([4]; pancreas): 6.6 ± 0.3 %ID/g
- tissue uptake at 48 h ([4]; pancreas): 6.3 ± 0.7 %ID/g
- tissue uptake at 72 h ([4]; pancreas): 5.3 ± 1.2 %ID/g
- tissue uptake at 4 h ([4]; skin): 5.9 ± 1.1 %ID/g
- tissue uptake at 24 h ([4]; skin): 5.4 ± 0.9 %ID/g
- tissue uptake at 48 h ([4]; skin): 6.3 ± 1.6 %ID/g
- tissue uptake at 72 h ([4]; skin): 4.8 ± 0.3 %ID/g
- tissue uptake at 4 h ([4]; spleen): 3.2 ± 0.7 %ID/g
- tissue uptake at 24 h ([4]; spleen): 3.8 ± 0.4 %ID/g
- tissue uptake at 48 h ([4]; spleen): 5.8 ± 0.6 %ID/g
- tissue uptake at 72 h ([4]; spleen): 5.4 ± 0.2 %ID/g
- tissue uptake at 4 h ([4]; stomach): 3.8 ± 0.4 %ID/g
- tissue uptake at 24 h ([4]; stomach): 3.1 ± 1.4 %ID/g
- tissue uptake at 48 h ([4]; stomach): 3.3 ± 1.2 %ID/g
- tissue uptake at 72 h ([4]; stomach): 3 ± 0.5 %ID/g
- tissue uptake at 4 h ([4]; tumor): 4.1 ± 0.5 %ID/g
- tissue uptake at 24 h ([4]; tumor): 6.5 ± 0.2 %ID/g
- tissue uptake at 48 h ([4]; tumor): 7.3 ± 0.4 %ID/g
- tissue uptake at 72 h ([4]; tumor): 7.3 ± 0.9 %ID/g
- tissue uptake per volume at 4 h [5]: 3.7 ± 0.9 %ID/mL
- tissue uptake per volume at 24 h [5]: 4.9 ± 0.5 %ID/mL
- tissue uptake per volume at 48 h [5]: 5.7 ± 0.6 %ID/mL
- tissue uptake per volume at 72 h [5]: 4.9 ± 0.3 %ID/mL
- SPECT quantification, kidneys (K), 4 h ([6]; 4 h post-injection): 7.7 ± 0.9 % ID/mL
- SPECT quantification, kidneys (K), 24 h ([6]; 24 h post-injection): 10.1 ± 0.8 % ID/mL
- SPECT quantification, kidneys (K), 48 h ([6]; 48 h post-injection): 10.1 ± 0.3 % ID/mL
- SPECT quantification, kidneys (K), 72 h ([6]; 72 h post-injection): 8.9 ± 0.2 % ID/mL
- Protein-Bound Fraction (%) [7]: 89.5 ± 0.8%
SMILES: C[C@@H](O)[C@@H]1NC(=O)[C@H](CCCCN)NC(=O)[C@@H](Cc2ccc(NC(N)=O)cc2)NC(=O)[C@H](Cc2ccc(NC(=O)[C@@H]3CC(=O)NC(=O)N3)cc2)NC(=O)[C@H](NC(=O)[C@H](Cc2ccc(Cl)cc2)NC(=O)[C@H](CCCCNC(=O)CCCc2ccc(I)cc2)NC(=O)CN2CCN(CC(=O)O)CCN(CC(=O)O)CCN(CC(=O)O)CC2)CSSC[C@@H](C(=O)N[C@H](Cc2ccc(O)cc2)C(N)=O)NC1=O [[^177Lu]Lu-8a, metal not drawn] ({DOTA}-K(Butanoyl(4-(4-I-phenyl)))[Phe(4-Cl)][dC][Phe(4-NH2)](Dihydroorotyl(S))[dPhe(4-NHCONH2)]KTC[dY]-NH2; disulfide 3-8)
